Literature values as cited in US20100151037A1, “METHOD FOR THE PREPARATION OF NANOPARTICLES CONTAINING A POORLY WATER-SOLUBLE […] ACTIVE COMPOUND” (priority 2008, published 2010).

Details: dry powder form

COC1=C(OC)C(=O)C(C/C=C(\C)CC/C=C(\C)CC/C=C(\C)CC/C=C(\C)CC/C=C(\C)CC/C=C(\C)CC/C=C(\C)CC/C=C(\C)CC/C=C(\C)CCC=C(C)C)=C(C)C1=O [Coenzyme Q10]
bioavailability: as low as three percent
